ChEMBL document CHEMBL5303710, “ECBD screening data for assay EOS300044” (2022)

Molecular target: Replicase polyprotein 1ab (Severe acute respiratory syndrome coronavirus 2) (UniProt P0DTD1)
Assay: Inhibition of SARS-CoV-2 3CL-Pro proteolytic cleavage of a dual-labeled substrate by FRET at 1mM DTT.
Format: functional
Design: assay stage

Row | Structure (SMILES) | IC50 relative [µM]
1 | CC(Cc1ccc(O)c(O)c1)C(C)Cc1ccc(O)c(O)c1 (centres undefined) | > 20
2 | O=C(NC(=S)N1CCCc2ccccc21)c1ccccc1 | > 20
3 | O=C(c1cccs1)c1no[n+]([O-])c1C(=O)c1cccs1 | > 20
4 | Cc1c(OCC(F)(F)F)ccnc1C[S+]([O-])c1nc2ccccc2[nH]1 (centres undefined) | > 20
5 | CN1CCN(C(=O)c2ccc(-c3ccc4c(C=O)c(O)ccc4c3)s2)CC1 | 5.65
6 | Nc1nc(S)c2ncn(C3OC(CO)C(O)C3O)c2n1 (centres undefined) | 1.45
7 | O=C1C(Cl)=C(N2CCOCC2)C(=O)N1c1ccc(Cl)c(Cl)c1 | > 20
8 | S=C=NCc1ccccc1 | > 20
9 | CCN(CC)S(=O)(=O)c1cccc(-n2sc3ccccc3c2=O)c1 | < 0.02
10 | O=c1cc(-c2ccccc2)oc2cc(O)c(O)c(O)c12 | > 20
11 | COc1ccnc(C[S+]([O-])c2nc3cc(OC(F)F)ccc3[nH]2)c1OC (centres undefined) | > 20
12 | COc1ccc2[nH]c([S+]([O-])Cc3ncc(C)c(OC)c3C)nc2c1 (centres undefined) | > 20
13 | Cc1ccc(-n2sc3ccccc3c2=O)cc1 | < 0.02
14 | O=C(Nc1ccccc1)Nc1ccc(-c2ccc(C(=O)[C@@H]3CCC[C@H]3C(=O)O)cc2)cc1 | > 20
15 | O=c1c(O)cccc2cc(O)c(O)c(O)c12 | > 20
16 | COc1cc(N(C)C)cc(CN(C)CCc2ccc([N+](=O)[O-])cc2)c1O | > 20
17 | Cn1sc(=O)n(Cc2ccccc2)c1=O | < 0.02
18 | Sc1nnc(Nc2ccccc2)s1 | > 20
19 | Oc1cc2c(cc1C(c1ccc(C(F)(F)F)cc1)N1CCOCC1)OCO2 (centres undefined) | > 20
20 | Sc1nnnn1-c1ccccc1 | > 20
21 | CCOC(=O)c1c(N)sc(-c2ccccc2)c1C | 3.61
22 | O=C1C(Cl)=C(Cl)C(=O)C(Cl)=C1Cl | 0.183
23 | O=C(CC1Sc2ncnn2C1=O)Nc1ccc(Br)cc1 (centres undefined) | > 20
24 | COc1ncc(-c2ccc3nccc(-c4ccnnc4)c3c2)cc1NS(=O)(=O)c1ccc(F)cc1F | > 20
25 | O=C(/C=C/c1ccc2ccccc2n1)c1ccncc1 | 0.191
26 | Cc1c(-c2ccc(N3CCc4cccc(C(=O)Nc5nc6ccccc6s5)c4C3)nc2C(=O)O)cnn1CC12CC3CC(CC(C3)C1)C2 | > 20
27 | O=C(O)c1c(Cl)c(Cl)c(Cl)c(Cl)c1-c1c2cc(I)c(=O)c(I)c-2oc2c(I)c(O)c(I)cc12 | > 20

Row | Structure (SMILES) | IC50 relative [µM]
28 | Sc1nnc(-c2ccccc2Cl)o1 | 7.71
29 | Cc1ccc(C)c(-n2sc3cc(F)ccc3c2=O)c1 | < 0.02
30 | CCN1CCN(C(c2ccc(C(F)(F)F)cc2)c2ccc3cccnc3c2O)CC1 (centres undefined) | 1.34
31 | O=C(O)[C@@H](S)[C@@H](S)C(=O)O | 0.0836
32 | CC1=CC(=O)c2ccccc2C1=O | > 20
33 | CCCCn1c(NC(=O)c2cccs2)c(C#N)c2nc3ccccc3nc21 | > 20
34 | O=C(c1ccc(Cl)cc1)c1cc([N+](=O)[O-])ccc1N1CCOCC1 | > 20
35 | CCOc1cc(C(Nc2cc(C)ccn2)c2ccc3cccnc3c2O)ccc1OC (centres undefined) | > 20
36 | CN(C)S(=O)(=O)c1cccc(-n2sc3ccccc3c2=O)c1 | < 0.02
37 | O=C(CCl)c1ccccc1 | 0.246
38 | O=[N+]([O-])c1ccc(Sc2cccc[n+]2[O-])c2nonc12 | 0.53
39 | c1ccc2sc(SSc3nc4ccccc4s3)nc2c1 | 0.537
40 | S=C=Nc1cccc(NC(=S)NCCCCNC(=S)Nc2cccc(N=C=S)c2)c1 | > 20
41 | Oc1cc2c(cc1O)C(c1ccccc1)CNCC2 (centres undefined) | > 20
42 | Nc1ccc(O)c2ncccc12 | > 20
43 | Cc1ccc(S(=O)(=O)N[C@@H](Cc2ccccc2)C(=O)CCl)cc1 | 0.839
44 | O=c1c2ccccc2sn1-c1ccccc1 | < 0.02
45 | Cc1ccc(-n2sc(=O)n(Cc3ccc(F)cc3)c2=O)cc1 | 0.148
46 | Cc1cc(-c2ccc(/C=C3/S/C(=N\c4ccc(Cl)c(C(=O)O)c4)NC3=O)o2)c([N+](=O)[O-])cc1C | > 20
47 | NC(Cc1cc(O)c(O)cc1O)C(=O)O (racemic) | > 20
48 | CC(C)(C)OC(=O)NCCc1nnc(S(=O)(=O)Cc2ccc(Cl)cc2Cl)o1 | 7.29
49 | CCN(CC)C(=S)S | > 20
50 | COC(=O)CC[C@H](NC(=O)[C@H](CC(=O)OC)NC(=O)OCc1ccccc1)C(=O)N[C@H](C(=O)N[C@@H](CC(=O)OC)C(=O)CF)C(C)C | < 0.02
51 | Cc1cc(-c2ccc(/N=N/c3ccc4c(S(=O)(=O)O)cc(S(=O)(=O)O)c(N)c4c3O)c(C)c2)ccc1/N=N/c1ccc2c(S(=O)(=O)O)cc(S(=O)(=O)O)c(N)c2c1O | 0.0219
52 | Cc1cc(C)cc(N2C(=O)CC(Sc3nc[nH]n3)C2=O)c1 (centres undefined) | > 20
53 | COc1ccc2[nH]c3c(S)ncnc3c2c1 | > 20
54 | COc1ccc2[nH]c(S)nc2c1 | > 20
